Experimental findings from PubChem BioAssay (NCI) are described below.

Common to all, as to experiment: NCI anticancer screen, dose series, 48 h
Experiment [1] relates to HCT-15 colon.
Experiment [2] concerns SK-OV-3 ovarian.
Experiment [3] deals with MDA-MB-435.
Experiment [4] concerns DU-145 prostate.
Experiment [5] relates to CCRF-CEM leukemia.
The test system of experiment [6] is CAKI-1 renal.
The subject of experiment [7] is OVCAR-3 ovarian.
The subject of experiment [8] is COLO 205 colon.
Experiment [9] concerns SW-620 colon.

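Where inhibition never reached the appropriate level, the endpoint shown equals the highest concentration tested. Otherwise, values were interpolated linearly from a five-concentration, 48-hour dose response in 96-well plates. Abbreviation: GI50, concentration required for 50% inhibition of growth. At the TGI there is no net growth.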

In the case of `CN(Cc1ccccc1)c1ncnc2ccc(Br)cc12`, the GI50 was 14.1 µM in [1]; 14.2 µM in experiment [2]; 4.67 µM in experiment [3]; 14.6 µM in [4]; 13.6 µM in [5]; 4.37 µM in experiment [6]. Further, the GI50 in experiment [7] is 7.45 µM; in experiment [8], 16.2 µM. In addition, the TGI in experiment [1] was 32 µM; in experiment [2], 30.3 µM; in experiment [3] it was 16.6 µM; in [4] it was 28.7 µM; in experiment [5], 38.7 µM; in experiment [6], 17.6 µM. The TGI came to 20.8 µM in experiment [7] and 38.2 µM in [8].

Consider `CO[C@H](C(=O)O[C@H]1C(=O)N2CCC3CCC1C32C)c1ccccc1` (stereo partly drawn), for which the TGI in experiment [1], in experiment [2], in experiment [5], in experiment [9], in experiment [6] and in [7] was more than 100 µM each time. This compound also came in with a TGI in experiment [8] of more than 100 µM.

Regarding `CN(C(=N)c1ccccc1)c1ccccc1`, the TGI in [1], in experiment [2], in experiment [5], in experiment [9], in experiment [7] and in experiment [8] was more than 100 µM each time.

Regarding `O=C(/C=C/c1ccc[nH]1)c1ccccc1`, the TGI in experiment [1], in [2], in experiment [5], in [9], in experiment [6] and in experiment [7] was more than 100 µM in each case. In addition, the TGI in experiment [8] was more than 100 µM.

Take `Cc1cc(Cl)ccc1NC(=O)C1C(=O)C(=O)N(c2ccc(Cl)cc2C)C1=O` (stereo not drawn): the TGI in [1], in experiment [2], in experiment [5], in experiment [9], in experiment [6] and in experiment [7] was more than 100 µM in each case. The TGI in experiment [8] is more than 100 µM.

On to `[O-]c1ccccc1[C-]=Nc1ccccc1O.[O-]c1ccccc1[C-]=Nc1ccccc1O.[O]=[U]=[O]`, for which the GI50 was 3.56 µM in experiment [1]; 43 µM in experiment [2]; 2.6 µM in experiment [5]; 12.2 µM in experiment [9]; 12.5 µM in experiment [6]; 4.13 µM in experiment [7]. Also, the GI50 in experiment [8] is 19 µM. The TGI worked out at 36.3 µM in experiment [1]; 71 µM in experiment [2]; 44.4 µM in experiment [5]; 74.5 µM in experiment [9]; 37.3 µM in [6]; 29.5 µM in experiment [7]. This compound registered a TGI in [8] of 51.6 µM.

`O=C1C2c3[nH]c4ccccc4c3C3CCC(c4ccccc4)CC3C2C(=O)N1c1ccccc1` (stereo not drawn): the TGI in experiment [1], in experiment [2], in experiment [5], in experiment [9], in [7] and in experiment [8] was more than 100 µM each time.

With `CN1C(=O)C(C)(C)NS1(=O)=O`, the TGI in [1], in experiment [2], in [5], in experiment [9], in [6] and in [7] was more than 100 µM each time. In [8], the TGI is more than 100 µM.

On to `COc1ccc(-c2cnc(SCC(=O)c3c(C)n(C)n(-c4ccccc4)c3=O)n2-c2ccc(OC)cc2)cc1`, for which the GI50 is more than 50 µM in experiment [1]; more than 50 µM in [3]; 9.13 µM in experiment [4]; more than 50 µM in [9]; more than 50 µM in experiment [6]; more than 50 µM in experiment [7]. Also, in experiment [8], the GI50 was more than 50 µM. In addition, the TGI in experiment [1], in experiment [3], in experiment [4], in experiment [9], in experiment [6] and in experiment [7] was more than 50 µM in each case. The same compound returned a TGI in experiment [8] of more than 50 µM.

For the compound `CC(C)(C)c1cc(O)c2c(c1O)C(=O)CCC2`, the TGI was more than 100 µM in experiment [1]; more than 100 µM in experiment [2]; more than 100 µM in experiment [5]; more than 100 µM in experiment [9]; 82.3 µM in experiment [6]; 76.5 µM in experiment [7]. The compound further had a TGI in [8] of more than 100 µM.

For the compound `OCC(O)C(O)C(O)c1nn[nH]n1` (stereo not drawn), the TGI in experiment [1], in experiment [2], in [5], in experiment [9], in experiment [6] and in experiment [7] was more than 100 µM in each case. The same compound gave a TGI in experiment [8] of more than 100 µM.

Turning to `NC(N)=NS(=O)(=O)c1ccc(NC(=O)c2cccn3c(=O)c4ccccc4nc23)cc1`, the TGI in experiment [2] was more than 100 µM; in experiment [5] it was 88 µM; in experiment [9], more than 100 µM; in experiment [6] it was more than 100 µM; in experiment [7], more than 100 µM; in experiment [8], 34 µM.

For `CC12CCC(=O)N1c1cc([N+](=O)[O-])ccc1N2` (stereo not drawn), the TGI in experiment [1], in experiment [2], in experiment [5], in [9], in experiment [7] and in experiment [8] was more than 100 µM each time.

Take `C=CCNC(=O)ON1C(=O)CCC1=O`: the TGI in [1], in [2], in [5], in experiment [9], in [7] and in experiment [8] was more than 100 µM in each case.

On to `C=C(c1ccccc1)[C@@]1(O)CCCC[C@H]1NC(c1ccccc1)c1ccccc1`, for which the TGI in experiment [1] worked out at 24.5 µM; in experiment [2], 44.2 µM; in [5], 18.7 µM; in [9] it was 32.8 µM; in experiment [6], 21.4 µM; in experiment [7], 24.7 µM. Besides, in experiment [8], the TGI turned out to be 28 µM.
